Data: BindingDB's records for doi:10.1016/s0960-894x(02)00516-4 (Atherogenics, 2002)

Assay: Inhibition of TNF-alpha inducible Vascular cell adhesion molecule-1 expression.

CC(C)(Sc1cc(C(C)(C)C)c(O)c(C(C)(C)C)c1)Sc1cc(C(C)(C)C)c(OC(=O)C(F)(F)C(F)(F)C(F)(F)C(=O)O)c(C(C)(C)C)c1 [2,2,3,3,4,4-Hexafluoro-pentanedioic acid mono-{2,6-di-tert-butyl-4-[1-(3,5-di-tert-butyl-4-hydroxy-phenylsulfanyl)-1-methyl-ethylsulfanyl]-phenyl} ester]
IC50: 100 µM

CC(=O)O/C(=C\C(=O)Oc1c(C(C)(C)C)cc(SC(C)(C)Sc2cc(C(C)(C)C)c(O)c(C(C)(C)C)c2)cc1C(C)(C)C)C(=O)O [2,6-di(tert-butyl)-4-{1-[3,5-di(tert-butyl)-4-hydroxyphenylsulfanyl]-1-methylethylsulfanyl}phenyl 3-carboxylicacid-3-methylcarbonyloxy-(E)-2-propenoate]
IC50: 17 µM

CC(C)(Sc1cc(C(C)(C)C)c(O)c(C(C)(C)C)c1)Sc1cc(C(C)(C)C)c(O)c(C(C)(C)C)c1 [2,6-di-tert-butyl-4-(2-(3,5-di-tert-butyl-4-hydroxyphenylthio)propan-2-ylthio)phenol]
IC50: > 50 µM

CC(C)(Sc1cc(C(C)(C)C)c(O)c(C(C)(C)C)c1)Sc1cc(C(C)(C)C)c(OC(=O)CC(O)CO)c(C(C)(C)C)c1 (stereo not drawn) [3,4-Dihydroxy-butyric acid 2,6-di-tert-butyl-4-[1-(3,5-di-tert-butyl-4-hydroxy-phenylsulfanyl)-1-methyl-ethylsulfanyl]-phenyl ester]
IC50: 8 µM

CC(C)(Sc1cc(C(C)(C)C)c(O)c(C(C)(C)C)c1)Sc1cc(C(C)(C)C)c(OC(=O)CCO)c(C(C)(C)C)c1 [3-Hydroxy-propionic acid 2,6-di-tert-butyl-4-[1-(3,5-di-tert-butyl-4-hydroxy-phenylsulfanyl)-1-methyl-ethylsulfanyl]-phenyl ester]
IC50: 30 µM

CC(C)(CO)CC(=O)Oc1c(C(C)(C)C)cc(SC(C)(C)Sc2cc(C(C)(C)C)c(O)c(C(C)(C)C)c2)cc1C(C)(C)C [4-Hydroxy-3,3-dimethyl-butyric acid 2,6-di-tert-butyl-4-[1-(3,5-di-tert-butyl-4-hydroxy-phenylsulfanyl)-1-methyl-ethylsulfanyl]-phenyl ester]
IC50: 110 µM

CC(C)(Sc1cc(C(C)(C)C)c(O)c(C(C)(C)C)c1)Sc1cc(C(C)(C)C)c(OC(=O)CCCO)c(C(C)(C)C)c1 [4-Hydroxy-butyric acid 2,6-di-tert-butyl-4-[1-(3,5-di-tert-butyl-4-hydroxy-phenylsulfanyl)-1-methyl-ethylsulfanyl]-phenyl ester]
IC50: 40 µM

CC(C)(Sc1cc(C(C)(C)C)c(O)c(C(C)(C)C)c1)Sc1cc(C(C)(C)C)c(OC(=O)CCCCO)c(C(C)(C)C)c1 [5-Hydroxy-pentanoicacid2,6-di-tert-butyl-4-[1-(3,5-di-tert-butyl-4-hydroxy-phenylsulfanyl)-1-methyl-ethylsulfanyl]-phenyl ester]
IC50: 55 µM

CC(C)(Sc1cc(C(C)(C)C)c(O)c(C(C)(C)C)c1)Sc1cc(C(C)(C)C)c(OC(=O)C[C@@H](NC(=O)Cc2ccccc2)C(=O)O)c(C(C)(C)C)c1 [(R)-2-Phenylacetylamino-succinic acid 4-{2,6-di-tert-butyl-4-[1-(3,5-di-tert-butyl-4-hydroxy-phenylsulfanyl)-1-methyl-ethylsulfanyl]-phenyl} ester]
IC50: 20 µM

CC(C)(Sc1cc(C(C)(C)C)c(O)c(C(C)(C)C)c1)Sc1cc(C(C)(C)C)c(OC(=O)[C@@H](O)CCC(=O)O)c(C(C)(C)C)c1 [(S)-2-Hydroxy-pentanedioic acid 1-{2,6-di-tert-butyl-4-[1-(3,5-di-tert-butyl-4-hydroxy-phenylsulfanyl)-1-methyl-ethylsulfanyl]-phenyl} ester]
IC50: 25 µM

CC(C)(Sc1cc(C(C)(C)C)c(O)c(C(C)(C)C)c1)Sc1cc(C(C)(C)C)c(OC(=O)CO)c(C(C)(C)C)c1 [Hydroxy-acetic acid 2,6-di-tert-butyl-4-[1-(3,5-di-tert-butyl-4-hydroxy-phenylsulfanyl)-1-methyl-ethylsulfanyl]-phenyl ester]
IC50: 30 µM

CC(C)(Sc1cc(C(C)(C)C)c(O)c(C(C)(C)C)c1)Sc1cc(C(C)(C)C)c(OC(=O)CCCCCCC(=O)O)c(C(C)(C)C)c1 [Octanedioic acid mono-{2,6-di-tert-butyl-4-[1-(3,5-di-tert-butyl-4-hydroxy-phenylsulfanyl)-1-methyl-ethylsulfanyl]-phenyl} ester]
IC50: 45 µM

CC(C)(Sc1cc(C(C)(C)C)c(O)c(C(C)(C)C)c1)Sc1cc(C(C)(C)C)c(OC(=O)C(=O)O)c(C(C)(C)C)c1 [Oxalic acid mono-{2,6-di-tert-butyl-4-[1-(3,5-di-tert-butyl-4-hydroxy-phenylsulfanyl)-1-methyl-ethylsulfanyl]-phenyl} ester]
IC50: > 50 µM

CC(C)(Sc1cc(C(C)(C)C)c(O)c(C(C)(C)C)c1)Sc1cc(C(C)(C)C)c(OC(=O)CCCC(=O)O)c(C(C)(C)C)c1 [Pentanedioic acid mono-{2,6-di-tert-butyl-4-[1-(3,5-di-tert-butyl-4-hydroxy-phenylsulfanyl)-1-methyl-ethylsulfanyl]-phenyl} ester]
IC50: 9 µM

COC(=O)CCC(=O)Oc1c(C(C)(C)C)cc(SC(C)(C)Sc2cc(C(C)(C)C)c(O)c(C(C)(C)C)c2)cc1C(C)(C)C [Succinic acid 2,6-di-tert-butyl-4-[1-(3,5-di-tert-butyl-4-hydroxy-phenylsulfanyl)-1-methyl-ethylsulfanyl]-phenyl ester methyl ester]
IC50: 40 µM

CC(C)(Sc1cc(C(C)(C)C)c(OC(=O)CCC(=O)O)c(C(C)(C)C)c1)Sc1cc(C(C)(C)C)c(OC(=O)CCC(=O)O)c(C(C)(C)C)c1 [Succinic acid mono-(2,6-di-tert-butyl-4-{1-[3,5-di-tert-butyl-4-(3-carboxy-propionyloxy)-phenylsulfanyl]-1-methyl-ethylsulfanyl}-phenyl) ester]
IC50: > 50 µM

CC(C)(Sc1cc(C(C)(C)C)c(O)c(C(C)(C)C)c1)Sc1cc(C(C)(C)C)c(OC(=O)CCC(=O)O)c(C(C)(C)C)c1 [Succinic acid mono-{2,6-di-tert-butyl-4-[1-(3,5-di-tert-butyl-4-hydroxy-phenylsulfanyl)-1-methyl-ethylsulfanyl]-phenyl} ester]
IC50: 6 µM

CC(C)(Sc1cc(C(C)(C)C)c(O)c(C(C)(C)C)c1)Sc1cc(C(C)(C)C)c(OC(=O)COCC(=O)O)c(C(C)(C)C)c1 [{2,6-Di-tert-butyl-4-[1-(3,5-di-tert-butyl-4-hydroxy-phenylsulfanyl)-1-methyl-ethylsulfanyl]-phenoxycarbonylmethoxy}-acetic acid]
IC50: 37 µM
